Experimental data from patent US20240043439A1, “COMPOUNDS AS C5AR INHIBITORS” (Kira Pharmaceuticals (Suzhou) Ltd., priority 2020, published 2024).

Target: human C5a receptor (C5aR) (Homo sapiens (Human), UniProt P21730)
Assay: Inhibition of C5a-C5aR binding (biotinylated human C5a, U937/C5aR cells, FACS)
Conditions: not given
Method: U937 cells were originally obtained from the American Type Culture Collection (ATCC) and transfected with human C5a receptor (C5aR). U937/C5aR cells were cultured at 37° C., 5% CO2 in RPMI1640 (Gibco) supplemented with 10% FBS (Gibco) and 350 µg/ml Geneticin (Gibco) and passaged every 3 days to maintain the density range from […] to 2×10^6 cells/ml.
Human C5a biotinylation was performed according to the procedure provided by manufacturer (Thermo Scientific, A39257). 10 mM solution of Sulfo-NHS-LC-Biotin was prepared by adding 180μl ultrapure H2O to the 1 mg vial immediately. 12 μl 10 mM biotin reagent was added to […] human C5a solution, gently pipetted for 3 seconds, and incubated on ice for 2 hours. Amicon ultra-0.5 centrifuge filter device (Millipore, UFC5003BK) was pre-rinsed with Milli-Q H2O, centrifuged at 14000 g for 5 min immediately before use. Up to […] sample (diluted by PBS) was added to the device and capped. The device was spinned at 14000 g for approximately 5 min. 250 μl PBS was added to the filter device, spinned at 14000 g for 5 min, and repeatedly washed 6 times. The filter device was separated from the microcentrifuge tube and placed upside down in a clean microcentrifuge tube, spinned for 2 min at 1000 g to transfer the concentrated sample from the device to the tube.
U937/C5aR cells were collected and washed twice by PBS, cells were suspended in PBS+0.1% BSA buffer at the density of 3×10^6 cells/ml. 100 μl cell suspension was added to a 96 well microplate. 50 μl compound diluted in assay buffer and 50 μl biotinylated ligand human C5a (30 nM) were added to corresponding wells in order and the plate was incubated on ice for 120 min and then centrifuged at 1000 rpm for 3-5 min at 4° C. Supernatant was removed and cells were washed by pre-cold PBS twice. 100 μl FITC conjugated streptavidin was added to cells, incubated on ice for another 30 min, and then centrifuged at 1000 rpm for 3-5 min at 4° C. Supernatant was removed and cells were washed by pre-cold PBS twice. 150 μl PBS was added to suspend the cells and signals were detected by FACS (Beckman, Cytoflex).

Chain of human C5a receptor (C5aR) (P21730 whole entry): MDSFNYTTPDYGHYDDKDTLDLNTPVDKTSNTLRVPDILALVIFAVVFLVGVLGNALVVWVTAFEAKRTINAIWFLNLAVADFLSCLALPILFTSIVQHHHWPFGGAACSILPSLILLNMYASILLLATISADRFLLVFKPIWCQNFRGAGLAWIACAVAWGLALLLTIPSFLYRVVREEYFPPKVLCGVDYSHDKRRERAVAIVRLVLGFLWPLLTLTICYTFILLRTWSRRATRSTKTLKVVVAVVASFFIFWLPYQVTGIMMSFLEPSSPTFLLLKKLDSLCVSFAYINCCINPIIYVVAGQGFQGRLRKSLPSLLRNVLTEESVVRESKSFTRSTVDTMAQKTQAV

Row | SMILES | IC50
1 | Cc1cccc(F)c1C(=O)N1[C@@H]2CCC[C@@H]2C[C@H](C(=O)Nc2ccc3nn(CCO)cc3c2)[C@@H]1c1ccc(NC2CCOCC2)cc1 [Compound 104, (2R,3S,4aR,7aR)-1-(2-fluoro-6-methylbenzoyl)-N-(2-(2-hydroxyethyl)-2H-indazol-5-yl)-2-(4-((tetrahydro-2H-pyran-4-yl)amino)phenyl)octahydro-1H-cyclopenta[b]pyridine-3-carboxamide] | 2 to 5 µM
2 | Cc1cccc(F)c1C(=O)N1[C@@H]2CCC[C@@H]2C[C@H](C(=O)Nc2ccc3c(cnn3CCN(C)C)c2)[C@@H]1c1ccc(NC2CCOCC2)cc1 [Compound 103, (2R,3S,4aR,7aR)-N-(1-(2-(dimethylamino)ethyl)-1H-indazol-5-yl)-1-(2-fluoro-6-methylbenzoyl)-2-(4-((tetrahydro-2H-pyran-4-yl)amino)phenyl)octahydro-1H-cyclopenta[b]pyridine-3-carboxamide] | 2 to 5 µM
3 | Cc1ccc(NC(=O)C2C[C@@H]3CCC[C@@H]3N(C(=O)c3c(C)cccc3F)C2c2ccc(NC3CCCC3)cc2)cc1C(F)(F)F (relative stereo) [Compound 155, cis-2-(4-(cyclopentylamino)phenyl)-1-(2-fluoro-6-methylbenzoyl)-N-(4-methyl-3-(trifluoromethyl)phenyl)octahydro-1H-cyclopenta[b]pyridine-3-carboxamide] | 0.5 to 2 µM
4 | Cc1cccc(F)c1C(=O)N1[C@@H]2CCC[C@@H]2C[C@H](C(=O)Nc2ccc3c(cnn3Cc3cccnc3)c2)[C@@H]1c1ccc(NC2CCOCC2)cc1 [Compound 107, (2R,3S,4aR,7aR)-1-(2-fluoro-6-methylbenzoyl)-N-(1-(pyridin-3-ylmethyl)-1H-indazol-5-yl)-2-(4-((tetrahydro-2H-pyran-4-yl)amino)phenyl)octahydro-1H-cyclopenta[b]pyridine-3-carboxamide] | 2 to 5 µM
5 | Cc1ccc(NC(=O)C2CC(O)CN(C(=O)c3c(C)cccc3F)C2c2ccc(NC3CCCC3)cc2)cc1C(F)(F)F (centres unmarked) [Compound 42, 2-(4-(cyclopentylamino)phenyl)-1-(2-fluoro-6-methylbenzoyl)-5-hydroxy-N-(4-methyl-3-(trifluoromethyl)phenyl)piperidine-3-carboxamide] | < 0.05 µM
6 | Cc1cccc(F)c1C(=O)N1[C@@H]2CCC[C@@H]2C[C@H](C(=O)Nc2ccc3ncccc3c2)[C@@H]1c1ccc(NC2CCOCC2)cc1 [Compound 95, (2R,3S,4aR,7aR)-1-(2-fluoro-6-methylbenzoyl)-N-(quinolin-6-yl)-2-(4-((tetrahydro-2H-pyran-4-yl)amino)phenyl)octahydro-1H-cyclopenta[b]pyridine-3-carboxamide] | 0.5 to 2 µM
7 | Cc1cccc(F)c1C(=O)N1[C@@H]2CCC[C@@H]2C[C@H](C(=O)Nc2ccc3c(cnn3C3COC3)c2)[C@@H]1c1ccc(NC2CCOCC2)cc1 [Compound 99, (2R,3S,4aR,7aR)-1-(2-fluoro-6-methylbenzoyl)-N-(1-(oxetan-3-yl)-1H-indazol-5-yl)-2-(4-((tetrahydro-2H-pyran-4-yl)amino)phenyl)octahydro-1H-cyclopenta[b]pyridine-3-carboxamide] | 2 to 5 µM
8 | Cc1cccc(F)c1C(=O)N1[C@@H]2CCC[C@@H]2C[C@H](C(=O)Nc2ccc3c(cnn3Cc3ccccn3)c2)[C@@H]1c1ccc(NC2CCOCC2)cc1 [Compound 92, (2R,3S,4aR,7aR)-1-(2-fluoro-6-methylbenzoyl)-N-(1-(pyridin-2-ylmethyl)-1H-indazol-5-yl)-2-(4-((tetrahydro-2H-pyran-4-yl)amino)phenyl)octahydro-1H-cyclopenta[b]pyridine-3-carboxamide] | 2 to 5 µM
9 | Cc1cccc(F)c1C(=O)N1[C@@H]2CCC[C@@H]2C[C@H](C(=O)Nc2ccc3[nH]ncc3c2)[C@@H]1c1ccc(NC2CCCC2)cc1 [Compound 84, (2R,3S,4aR,7aR)-2-(4-(cyclopentylamino)phenyl)-1-(2-fluoro-6-methylbenzoyl)-N-(1H-indazol-5-yl)octahydro-1H-cyclopenta[b]pyridine-3-carboxamide] | < 0.05 µM
10 | Cc1cccc(F)c1C(=O)N1[C@@H]2CCC[C@@H]2C[C@H](C(=O)Nc2ccc3c(cnn3C3COC3)c2)[C@@H]1c1ccc(NC2CCCC2)cc1 [Compound 83, (2R,3S,4aR,7aR)-2-(4-(cyclopentylamino)phenyl)-1-(2-fluoro-6-methylbenzoyl)-N-(1-(oxetan-3-yl)-1H-indazol-5-yl)octahydro-1H-cyclopenta[b]pyridine-3-carboxamide] | 2 to 5 µM
11 | Cc1cccc(F)c1C(=O)N1[C@@H]2CCC[C@@H]2C[C@H](C(=O)Nc2ccc3c(cnn3CCO)c2)[C@@H]1c1ccc(NC2CCOCC2)cc1 [Compound 102, (2R,3S,4aR,7aR)-1-(2-fluoro-6-methylbenzoyl)-N-(1-(2-hydroxyethyl)-1H-indazol-5-yl)-2-(4-((tetrahydro-2H-pyran-4-yl)amino)phenyl)octahydro-1H-cyclopenta[b]pyridine-3-carboxamide] | 2 to 5 µM

Next, values leading:

Row | IC50 | SMILES
12 | 2 to 5 µM | Cc1cccc(F)c1C(=O)N1C2COC[C@@H]2C[C@H](C(=O)Nc2ccc3c(cnn3C)c2)[C@@H]1c1ccc(NC2CCOCC2)cc1 (relative stereo) [Compound 134, cis-1-(2-fluoro-6-methylbenzoyl)-N-(1-methyl-1H-indazol-5-yl)-2-(4-((tetrahydro-2H-pyran-4-yl)amino)phenyl)octahydrofuro[3,4-b]pyridine-3-carboxamide]
13 | 2 to 5 µM | Cc1cccc(F)c1C(=O)N1[C@@H]2COC[C@@H]2C[C@H](C(=O)Nc2ccc3cnn(C)c3c2)[C@@H]1c1ccc(NC2CCCC2)cc1 [Compound 122, (2R,3S,4aR,7aS)-2-(4-(cyclopentylamino)phenyl)-1-(2-fluoro-6-methylbenzoyl)-N-(1-methyl-1H-indazol-6-yl)octahydrofuro[3,4-b]pyridine-3-carboxamide]
14 | 0.5 to 2 µM | Cc1ccc(NC(=O)[C@H]2CCCN(C(=O)c3c(C)cccc3F)[C@H]2C2CCC3(CCOC3)CC2)cc1C(F)(F)F (stereo partly drawn) [Compound 170, (2S,3S)-1-(2-fluoro-6-methylbenzoyl)-N-(4-methyl-3-(trifluoromethyl)phenyl)-2-(2-oxaspiro[4.5]decan-8-yl)piperidine-3-carboxamide]
15 | 2 to 5 µM | Cc1cccc(F)c1C(=O)N1[C@@H]2COC[C@@H]2C[C@H](C(=O)Nc2ccc3c(cnn3C)c2)[C@@H]1c1ccc(CN2CCOCC2(C)C)cc1 [Compound 142, (2R,3S,4aR,7aS)-2-(4-((3,3-dimethylmorpholino)methyl)phenyl)-1-(2-fluoro-6-methylbenzoyl)-N-(1-methyl-1H-indazol-5-yl)octahydrofuro[3,4-b]pyridine-3-carboxamide]

Target: C5aR (Homo sapiens (Human), UniProt P21730)
Sequence (P21730 whole entry): as above
Assay: Calcium mobilization (U937/C5aR or HEK293/C5aR cells, FLIPR)
Type: cell-based
Conditions: agonist human C5a at EC80, FLIPR
Method: U937/C5aR cells or HEK293/C5aR cells were washed by PBS and suspended in growth media at the density of 1×10^6 cells/ml. […] to the 384-well plate and culture for overnight. Transfer 250 nl compound solution to the cell plate using Echo, incubate for 60 min. Cells were added with Fluo-4 Direct™ dye and incubate for 50 min at 37° C. 5% CO2 and 10 m at room temperature. Place the cell plate into […] (Molecular Devices). Transfer 10 μl of 5-fold EC80 concentrations of agonist human C5a to the cell plates.

Row | IC50 | SMILES
16 | 2 to 10 µM | Cc1ccc(NC[C@H]2CCCN(C(=O)c3c(C)cccc3F)[C@H]2c2ccc(NC3CCCC3)cc2)cc1C(F)(F)F [Compound 160, ((2R,3R)-2-(4-(cyclopentylamino)phenyl)-3-(((4-methyl-3-(trifluoromethyl)phenyl)amino)methyl)piperidin-1-yl)(2-fluoro-6-methylphenyl)methanone]
17 | 2 to 10 µM | Cc1ccc(NC(=O)[C@H]2CCCN[C@H]2c2ccc(N(c3ncnc4cnccc34)C3CCCC3)cc2)cc1C(F)(F)F [Compound 178, (2R,3S)-2-(4-(cyclopentyl(pyrido[3,4-d]pyrimidin-4-yl)amino)phenyl)-N-(4-methyl-3-(trifluoromethyl)phenyl)piperidine-3-carboxamide]
18 | 2 to 10 µM | Cc1ccc(NC(=O)[C@H]2CCCN[C@H]2c2ccc(N(c3ncnc4ccccc34)C3CCCC3)cc2)cc1C(F)(F)F [Compound 177, (2R,3S)-2-(4-(cyclopentyl(quinazolin-4-yl)amino)phenyl)-N-(4-methyl-3-(trifluoromethyl)phenyl)piperidine-3-carboxamide]
19 | 2 to 10 µM | Cc1ccc(NC(=O)[C@H]2CCCN[C@H]2c2ccc(N(c3nncc4ccccc34)C3CCCC3)cc2)cc1C(F)(F)F [Compound 179, (2R,3S)-2-(4-(cyclopentyl(phthalazin-1-yl)amino)phenyl)-N-(4-methyl-3-(trifluoromethyl)phenyl)piperidine-3-carboxamide]

Row | SMILES | IC50
20 | Cc1cccc(F)c1C(=O)N1C(c2ccc(NC3CCOCC3)cc2)C(C(=O)Nc2cnn(C)c2)C[C@@H]2COC[C@@H]21 (relative stereo) [Compound 127, cis-1-(2-fluoro-6-methylbenzoyl)-N-(1-methyl-1H-pyrazol-4-yl)-2-(4-((tetrahydro-2H-pyran-4-yl)amino)phenyl)octahydrofuro[3,4-b]pyridine-3-carboxamide] | 2 to 10 µM
